Earlier results as cited in patent US8093271B2, “Anti-acid pharmaceutical composition in powder form and process for making it” (Laboratorios Bago S.A., priority 2006, dated 2012).
Read-outs that look alike come from different tables or passages of the source.

How the values were obtained:
[1] = in water

time by which absorption is completed (absorption in the small intestine): 3 to 6 h
time required to reach the intestine (fasting state): 20 to 30 min
half life ([1]; pH near 7): about 14 hours
half life ([1]; pH of 4): lower than 10 minutes
Compound: COc1ccc2[nH]c([S+]([O-])Cc3ncc(C)c(OC)c3C)nc2c1 (stereo not shown) [omeprazole]
